Assay results: patent US9695155B2, “Herbicidal substituted pyrimidinyloxy benzene compounds” (E. I. DU PONT DE NEMOURS AND COMPANY, priority 2013, dated 2017)

Assays:
[1] = test system: pigweed; assay: Test A postemergence; assay type: in vivo, Amaranthus retroflexus
Procedure, shortened: (§1)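 Visual 0–100 rating (100 = complete control) taken about 10 d post-treatment relative to untreated checks. Preemergence: directed soil spray on sown loam/sand pots. Postemergence: seedlings 2–10 cm, 1–2 leaf. Non-phytotoxic solvent formulation with surfactant.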

[2] = test system: giant foxtail; assay: Test A postemergence; assay type: in vivo, Setaria faberii
Procedure, shortened: as §1

[3] = test system: corn; assay: Test A postemergence; assay type: in vivo, Zea mays
Procedure, shortened: as §1

[4] = test system: wheat; assay: Test A preemergence; assay type: in vivo, Triticum aestivum
Procedure, shortened: as §1

[5] = test system: galium; assay: Test C preemergence; assay type: in vivo, Galium aparine; conditions: for Galium plant response rating: preemergence; for Plant response rating, Galium: Preemergence, scale 0 to 100, 0 no effect, 100 complete control
Excerpt: (§2) Seeds of plant species selected from blackgrass (Alopecurus myosuroides), Italian ryegrass (Lolium multiflorum), wheat, winter (winter wheat, Triticum aestivum), galium (catchweed bedstraw, Galium aparine), corn (Zea mays), large (Lg) crabgrass (Digitaria sanguinalis), giant foxtail (Setaria faberii), johnsongrass (Sorghum halepense), lambsquarters (Chenopodium album), morningglory (Ipomoea coccinea), yellow nutsedge (Cyperus esculentus), pigweed (Amaranthus retroflexus), ragweed (common ragweed, Ambrosia elatior), soybean (Glycine max), barnyardgrass (Echinochloa crus-galli), oilseed rape (Brassica napus), waterhemp (common waterhemp, Amaranthus rudis), kochia (Kochia scoparia), wild oat (Avena fatua), surinam grass (Brachiaria decumbens), foxtail, green (green foxtail, Setaria viridis), goosegrass (Eleusine indica), bromegrass, downy (downy bromegrass, Bromus tectorum), nightshade (eastern black nightshade, Solanum ptycanthum), cocklebur (common cocklebur, Xanthium strumarium), cupgrass, woolly (woolly cupgrass, Eriochloa villosa), bermudagrass (Cynodon dactylon), sunflower, (common oilseed sunflower, Helianthus annuus), Russian thistle (Salsola kali), and velvetleaf (Abutilon theophrasti) were planted into a blend of loam soil and sand and treated preemergence with test chemicals formulated in a non-phytotoxic solvent mixture which included a surfactant.
(§3) At the same time, plants selected from these crop and weed species and also barley, winter (winter barley, Hordeum vulgare), windgrass (Apera spica-venti), chickweed (common chickweed, Stellaria media), deadnettle (henbit deadnettle, Lamium amplexicaule), and canarygrass (littleseed canarygrass, Phalaris minor) were planted in pots containing Redi-Earth® planting medium (Scotts Company, 14111 Scottslawn Road, Marysville, Ohio 43041) comprising spaghnum peat moss, vermiculite, wetting agent and starter nutrients and treated with postemergence applications of test chemicals formulated in the same manner. Plants ranged in height from 2 to 18 cm (1- to 4-leaf stage) for postemergence treatments. Treated plants and controls were maintained in a greenhouse for 13 to 15 days, after which time all species were compared to controls and visually evaluated. Plant response ratings, summarized in Table C, are based on a scale of 0 to 100 where 0 is no effect and 100 is complete control. A dash (-) response means no test result.

[6] = test system: lambsquarters; assay: Test C preemergence; assay type: in vivo, Chenopodium album; conditions: for Lambsquarters plant response rating: preemergence; for Plant response rating, Lambsquarters: Preemergence, scale 0 to 100, 0 no effect, 100 complete control
Excerpt: as §2, §3

[7] = test system: ragweed; assay: Test C preemergence; assay type: in vivo, Ambrosia elatior; conditions: for Ragweed plant response rating: preemergence; for Plant response rating, Ragweed: Preemergence, scale 0 to 100, 0 no effect, 100 complete control
Excerpt: as §2, §3

[8] = test system: corn; assay: Test C preemergence; assay type: in vivo, Zea mays; conditions: for Corn plant response rating: preemergence; for Plant response rating, Corn: Preemergence, scale 0 to 100, 0 no effect, 100 complete control
Excerpt: as §2, §3

[9] = test system: velvetleaf; assay: Test C preemergence; assay type: in vivo, Abutilon theophrasti; conditions: for Velvetleaf plant response rating: preemergence; for Plant response rating, Velvetleaf: Preemergence, scale 0 to 100, 0 no effect, 100 complete control
Excerpt: as §2, §3

[10] = test system: morningglory; assay: Test C preemergence; assay type: in vivo, Ipomoea coccinea; conditions: for Morningglory plant response rating: preemergence; for Plant response rating, Morningglory: Preemergence, scale 0 to 100, 0 no effect, 100 complete control
Excerpt: as §2, §3

[11] = 125 g ai/ha, 0 to 100 scale where 0 is no effect and 100 is complete control
[12] = 500 g ai/ha, 0 to 100 scale, 0 no effect, 100 complete control
[13] = 16 g ai/ha, scale 0 to 100 (0 no effect, 100 complete control)
[14] = 62 g ai/ha, scale 0 (no effect) to 100 (complete control)
[15] = 125 g ai/ha, scale 0 (no effect) to 100 (complete control)
[16] = 31 g ai/ha, 0 to 100 scale, 0 no effect, 100 complete control
[17] = 500 g ai/ha, 0 to 100 scale where 0 is no effect and 100 is complete control
[18] = 125 g ai/ha, 0 to 100 scale, 0 no effect, 100 complete control

Row | SMILES | Galium plant response rating [5, 13] | Galium plant response rating [5, 15] | Plant response rating, Pigweed [1, 16] | Plant response rating, Foxtail, Giant [2, 16] | Lambsquarters plant response rating [6, 13] | Lambsquarters plant response rating [6, 14] | Lambsquarters plant response rating [6, 15] | Plant response rating, Corn [3, 16] | Ragweed plant response rating [7, 13] | Ragweed plant response rating [7, 14] | Ragweed plant response rating [7, 15] | Corn plant response rating [8, 13] | Corn plant response rating [8, 14] | Corn plant response rating [8, 15] | Plant response rating, Corn ([8]; 31 g ai/ha) | Velvetleaf plant response rating [9, 13] | Velvetleaf plant response rating [9, 14] | Velvetleaf plant response rating [9, 15] | Morningglory plant response rating [10, 13] | Morningglory plant response rating [10, 15] | other results
1 | FC(F)(F)c1ccn(-c2ccccc2Oc2ncc(Cl)cn2)n1 [Compound 2, 5-chloro-2-[2-[3-(trifluoromethyl)-1H-pyrazol-1-yl]phenoxy]pyrimidine] | – | – | – | – | – | – | – | – | – | – | – | – | – | – | – | – | – | – | – | – | pest or weed control at 125 g/ha ([1]; Amaranthus retroflexus, post-emergence, 125 g ai/ha, 0 to 100 scale where 0 is no effect and 100 is complete control, read-out: Plant response rating, Pigweed): 60%; pest or weed control at 500 g/ha ([1]; Amaranthus retroflexus, post-emergence, 240 h, 500 g ai/ha, 0 to 100 scale, 0 no effect, 100 complete control, read-out: Plant response rating Pigweed): 100%; pest or weed control at 125 g/ha ([2]; Setaria faberi, post-emergence, 240 h, 125 g ai/ha, 0 to 100 scale where 0 is no effect and 100 is complete control, read-out: Plant response rating, Foxtail, Giant): 10%; pest or weed control at 500 g/ha ([2]; Setaria faberi, post-emergence, 240 h, 500 g ai/ha, 0 to 100 scale, 0 no effect, 100 complete control, read-out: Plant response rating Foxtail, Giant): 80%; Corn plant response rating (crop injury, 0 = no effect, 100 = complete kill) at 125 g/ha ([3]; Zea mays, post-emergence, 240 h, 125 g ai/ha, 0 to 100 scale where 0 is no effect and 100 is complete control): 0%; plant injury at 500 g/ha ([3]; Zea mays, post-emergence, 240 h, 500 g ai/ha, 0 to 100 scale, 0 no effect, 100 complete control, read-out: Plant response rating Corn): 40%; plant injury at 125 g/ha ([4]; Triticum aestivum, pre-emergence, 240 h, 125 g ai/ha, 0 to 100 scale where 0 is no effect and 100 is complete control, read-out: Wheat plant response rating): 0%; plant injury at 500 g/ha ([4]; Triticum aestivum, pre-emergence, 240 h, 500 g ai/ha, 0 to 100 scale, 0 no effect, 100 complete control, approx. 10 days, read-out: Wheat plant response rating): 0%
2 | Clc1cnc(Oc2ccccc2-n2cc(Cl)cn2)nc1 [Compound 3] | – | – | – | – | – | – | – | – | – | – | – | – | – | – | – | – | – | – | – | – | Plant response rating, Pigweed [1, 11]: 90; Plant response rating, Pigweed [1, 12]: 100; Plant response rating, Foxtail, Giant [2, 11]: 30; Plant response rating, Foxtail, Giant [2, 12]: 90; Plant response rating, Corn [3, 11]: 0; Plant response rating, Corn [3, 12]: 40; Wheat plant response rating [4, 11]: 0; Wheat plant response rating ([4]; 500 g ai/ha, 0 to 100 scale, 0 no effect, 100 complete control, approx. 10 days): 10
3 | FCc1cccc(Oc2ncc(F)cn2)c1-n1cc(C(F)(F)F)cn1 [Compound 118] | 95 | 100 | 70 | 30 | 100 | 100 | 100 | 10 | 70 | 100 | 100 | 10 | 70 | 85 | 40 | 100 | 100 | 100 | 40 | 100 | Galium plant response rating [5, 14]: 100; Plant response rating, Galium ([5]; 31 g ai/ha): 95; Plant response rating, Foxtail, Giant [2, 11]: 80; Plant response rating, Lambsquarters ([6]; 31 g ai/ha): 100; Plant response rating, Corn [3, 11]: 50; Plant response rating, Ragweed ([7]; 31 g ai/ha): 100; Plant response rating, Velvetleaf ([9]; 31 g ai/ha): 100; Morningglory plant response rating [10, 14]: 100; Plant response rating, Morningglory ([10]; 31 g ai/ha): 75
4 | COc1cnn(-c2c(C#N)cccc2Oc2ncc(Cl)cn2)c1 [Compound 137] | 5 | 95 | – | – | 100 | 100 | 100 | – | 45 | 80 | 95 | 0 | 5 | 10 | 5 | 40 | 65 | 85 | 25 | 90 | Galium plant response rating [5, 14]: 10; Plant response rating, Galium ([5]; 31 g ai/ha): 5; Pigweed plant response rating [1, 11]: 70; Plant response rating, Pigweed [1, 17]: 100; Foxtail, Giant plant response rating [2, 11]: 70; Plant response rating, Foxtail, Giant [2, 17]: 100; Corn plant response rating [3, 11]: 30; Plant response rating, Corn [3, 17]: 80; Morningglory plant response rating [10, 14]: 45
5 | N#Cc1cnn(-c2c(CF)cccc2Oc2ncc(F)cn2)c1 [Compound 151] | – | – | 20 | 0 | 100 | 100 | 100 | 0 | 55 | 85 | 100 | 0 | 15 | 70 | 5 | 85 | 100 | 100 | 0 | 25 | Pigweed plant response rating [1, 11]: 70; Foxtail, Giant plant response rating [2, 11]: 40; Corn plant response rating [3, 11]: 40; Morningglory plant response rating [10, 14]: 10
6 | FCc1cccc(Oc2ncc(Cl)cn2)c1-n1cc(Cl)cn1 [Compound 250] | 0 | 98 | 60 | 10 | 90 | – | 100 | 10 | 15 | – | 75 | 0 | – | 10 | – | 100 | – | 100 | 0 | 50 | Plant response rating, Galium ([5]; 62 g ai/ha): 70; Plant response rating, Pigweed [1, 18]: 90; Plant response rating, Foxtail, Giant [2, 18]: 80; Plant response rating, Lambsquarters ([6]; 62 g ai/ha): 100; Plant response rating, Corn [3, 18]: 30; Plant response rating, Ragweed ([7]; 62 g ai/ha): 40; Plant response rating, Corn ([8]; 62 g ai/ha): 0; Plant response rating, Velvetleaf ([9]; 62 g ai/ha): 100; Plant response rating, Morningglory ([10]; 62 g ai/ha): 50
